Consider 7 compounds from patent US20230416692A1 (BOARD OF REGENTS, THE UNIVERSITY OF TEXAS SYSTEM, priority 2020, published 2023).

Like-named read-outs stand apart in the source and are kept apart here. A value given as a limit tells only on which side of the number the result lay.

In data set [1] the test system is SARS-CoV-2-Nluc. The experiment in a line: microbe, parasite or virus in culture. It counts as cell-based.
In data set [2] the test system is SARS-CoV-2-Nluc. The experiment in a line: microbe, parasite or virus in culture. It is filed as cell-based. This is another data set of the same source.
For data set [3], the system named is A549-hACE2 cells. The settings on record: human.
The conditions of data set [4]: human exposures in the clinics, cited from earlier work; for Cmax: read-out: Exposure (μM): Cmax.
For data set [5], the system named is plasma protein. The following applies: data from literature; cited from earlier work.
Data set [6] relates to COVID-19. The following applies: human, in vivo; cited from earlier work.
For data set [7], the system named is icSARS-CoV-2-mNG. It counts as cell-based, SARS-CoV-2.
The mark [8] stands for this setting: Severe acute respiratory syndrome coronavirus 2, Vero C1008.
The mark [9] stands for this setting: Severe acute respiratory syndrome coronavirus 2, Vero C1008, 48 h.
Where [10] appears, read: Severe acute respiratory syndrome coronavirus 2.
Setting [11] is: Severe acute respiratory syndrome coronavirus 2, 48 h.

For the compound `CCN(CC)CCCC(C)Nc1ccnc2cc(Cl)ccc12` (stereo not drawn) [Chloroquine], the EC50 (commonly the midpoint of the concentration-response curve) in data set [1] (setting [8]) stood at 3.52 µM; in data set [1] (setting [9]), 3.52 µM; in data set [2] (setting [10]) it was 1.32 µM; in data set [2] (setting [11]), 1.32 µM. Further, the CC50 (in general, the concentration giving 50% cytotoxicity) in data set [3] is > 50 µM.
In the case of `CCC(CC)COC(=O)[C@H](C)N[P@](=O)(OC[C@H]1O[C@@](C#N)(c2ccc3c(N)ncnn23)[C@H](O)[C@@H]1O)Oc1ccccc1` [Remdesivir], the EC50 in data set [1] (setting [8]) is 1.28 µM; in data set [1] (setting [9]), 1.28 µM; in data set [2] (setting [10]), 0.115 µM; in data set [2] (setting [11]), 0.115 µM. In data set [2], the “SI (selectivity index)” value was found to be 284.
With `CC(C)OC(=O)[C@H](C)N[P@](=O)(CO[C@H](C)Cn1cnc2c(N)ncnc21)Oc1ccccc1` [Tenofovir alafenamide], in data set [4], the Cmax (as a rule, the peak of the concentration-time curve) was 0.4 µM. The “activity against SARS-CoV-2-Nluc (in words)” value in data set [2] is “inactive”. In data set [2] (setting [11]), the EC50 was > 10 µM. Besides, the CC50 in data set [3] is > 50 µM. The “Plasma protein binding (%)” value in data set [5] was 80%.
`CCC[C@@]1(CCc2ccccc2)CC(O)=C([C@H](CC)c2cccc(NS(=O)(=O)c3ccc(C(F)(F)F)cn3)c2)C(=O)O1` [Tipranavir]: in data set [4], the “Exposure (μM): Cmin” value is 30.8 µM and the Cmax was 130 µM. Moreover, in data set [2], the EC50 worked out at 8.65 ± 0.16 µM and the “SI (selectivity index)” value is 3.3. The compound also gave an EC50 in data set [2] (setting [11]) of 8 to 9 µM. In data set [3], this compound registered a CC50 of 28.4 ± 0.5 µM. Moreover, the “Plasma protein binding (%)” value in data set [5] is 99.9%.
Take `CC[C@H]1OC(=O)[C@H](C)[C@@H](O[C@H]2C[C@@](C)(OC)[C@@H](O)[C@H](C)O2)[C@H](C)[C@@H](O[C@@H]2O[C@H](C)C[C@H](N(C)C)[C@H]2O)[C@](C)(O)C[C@@H](C)CN(C)[C@H](C)[C@@H](O)[C@]1(C)O` [azithromycin]: the “fatality rate among hospitalized patients (in words)” value in data set [6] is “not associated with significant differences in fatality rate”.
On to `CCN(CCO)CCCC(C)Nc1ccnc2cc(Cl)ccc12` (stereo not drawn) [hydroxychloroquine], for which the “fatality rate among hospitalized patients (in words)” value in data set [6] is given as “not associated with significant differences in fatality rate”.
With IFN-α, in data set [7], the “EC50 (concentration inhibiting 50% of viral replication)” value is 101 u/ml, the “mNG expression (visual)” value is given as “No mNG expression was visually observed” and the mNG signal entry is “dose-dependent reduction of mNG signal”.
